A word on the viability: it is a read-out of living cells in per cent, often relative to untreated cells. One may read the IC50 as the midpoint of a concentration-inhibition curve.

Read-outs that look alike come from different tables or passages of the source. Bounds are passed on as bounds.

This note sets out measurements from patent US20240392254A1, “CANCER MICROENVIRONMENT” (CARCINOTECH LTD, priority 2021, published 2024).

For series [1], the system named is bioprinted construct BB21-001 (MDA-MB-231, hMAds, CAF, BCSC). In words: Doxorubicin treatment of single-cell bioprinted breast cancer construct, RealTime-Glo MT viability. The format is cell-based, human. How it is done:
The 15-day old bioprinted constructs were treated with 0.2 and 1 μM Doxorubicin (Doxo) for 72 h. Cell viability was assessed using RealTime-Glo MT before treatment (day 0) and after 72 h of treatment. To assess the doxorubicin effects after 72 h, a percentage of day 0 viability was calculated for each construct. Statistically significant differences were determined using one-way ANOVA with Tukey's post-hoc test, and indicated as follows: *** p≤0.001, **** p≤0.0001, ns—not significant.
Each cell line (MDA-MB-231, hMAds, CAF and BCSC) was harvested, counted and then the required number of cells was transferred into a 15 ml Falcone tube. The cells were spun down then resuspended into 20 μL of complete 3D Tumorsphere Medium XF (obtained from PromCell®) and loaded into a syringe preloaded with 200 μL of Laminink 411 (cells corresponded to 10% of the bioink volume). Then mixed for 550 times. The homogeneous mixture was transferred to a syringe and then set to bioprint (the extrusion volume of each bioprint being set to 3 uL (approximately 50000 cells per droplet).

The test system of series [2] is bioprinted construct BB21-001. The experiment in a line: LDH release (LDH-Glo) cytotoxicity in bioprinted breast cancer construct. The format is cell-based, human. As to conditions: 0.2 and 1 μM doxorubicin, 72 h time-point. Here is the method:
The 15-day old bioprinted constructs were treated with 0.2 and 1 μM Doxorubicin (Doxo). Medium samples were collected at 24, 48 and 72 h time points to assess the Lactate Dehydrogenase (LDH) release, which is a marker of cytotoxicity. LDH-Glo assay was used. Data are presented as means±SD, n=3.
Cytotoxicity of doxorubicin was also assessed by LDH release detection.
On the technique in general: LDH in the medium is a marker of cell lysis.

The test system of series [3] is MDA-MB-231 triple negative breast cancer cells. The experiment in a line: Doxorubicin dose-response in 2D cell culture. As to conditions: for cell viability (in comparison to an untreated control sample): 2D cell culture.
Method: The MDA-MB-231 cells were cultured in Leibovitz's L-15 Medium (ATCC®) and fetal bovine serum was added to a final concentration of 10%, and in accordance with the general procedure outlined in MDA-MB-231 (HTB-26™) Product sheet from ATCC® (https://www.atcc.org/products/htb-26).
Cells were exposed to a range of doxorubicin concentrations for 72 hours and sensitivity to this drug was evaluated by determining a concentration that kills 50% of the cells (IC50).
The test system of series [4] is U-87 MG glioblastoma cell line. In words: Cisplatin dose-response in 2D culture, CellTiter-Glo viability. Type of series: cell-based. Here is the method:
(§1) Cell cultures were exposed to the indicated cisplatin concentrations for 72 h. Cell viability was then assessed using the luminescence-based CellTiter-Glo Assay. Data are presented as means±SEM (n≥2). For 2D cell cultures and 3D tumorspheres FIGS. 7A and 7B) dose-response curves were fitted (nonlinear regression) to calculate the IC50 values (see: Table 1 in the examples section). In the 3D bioprint experiment (FIG. 7B) statistically significant difference between untreated control and cisplatin treatment was determined using an unpaired t-test (**** p≤0.0001).
(§2) Both cell lines were deemed sensitive to cisplatin, however, higher drug doses were required to initiate death of cancer stem cells.

For series [5], the system named is glioblastoma cancer stem cells (GBM CSC). The description is as above. Type of series: cell-based. How it is done:
as §1, §2

Series [6] has as its system 3D GBM tumorspheres (spheroids) from coculture of U-87 MG, GBM CSC, GBM CAF and microglia (HMC3). The experiment in a line: Cisplatin dose-response in 3D GBM tumorspheres, CellTiter-Glo viability. The format is cell-based. Here is the method:
as §1
In the next step, response to cisplatin was tested in 3D GBM spheroids (see FIG. 7B). […] Nevertheless, cisplatin was effective in 3D GBM tumourspheres (spheroids) as well.
For orientation: In ATP-based viability assays light output follows the ATP content of the culture.

Series [7] deals with 3D GBM bioprints (example B21_012). In words: Cisplatin treatment of 3D GBM bioprinted constructs, CellTiter-Glo viability. Type of series: cell-based, human. How it is done: as §1
Bioprinted constructs were treated with 50, 100, 200, or 400 μM cisplatin (CDDP) for 72 h. Viability was assessed using CellTiter-Glo assay.
Tumorspheres, obtained from a coculture of U87MG (60%), microglia HMC3 (28%), GBM-CAF (10%) and GBM-CSC (2%) after 14 days in 5×96-well round bottom low adhesion plates, were harvested by sedimenting in Falcon tube then transferred into a 1 ml syringe. The culture medium was eliminated by gravitation. The total volume of tumorsphere pellet was 50 μL. 270 μL of bioink Cellink Laminink 411 were transferred into another 1 ml syringe; a connector was used to link both syringes. Mixing the bioink and tumorspheres was done by pushes from one side to another. The homogenous mixture tumorspheres-bioink (˜320 μL) was transferred in 3 ml syringe preloaded with 1 mL start ink. […]

For `COc1cccc2c1C(=O)c1c(O)c3c(c(O)c1C2=O)C[C@@](O)(C(=O)CO)C[C@@H]3O[C@H]1C[C@H](N)[C@H](O)[C@H](C)O1` [doxorubicin, Doxorubicin], the “effect on cell viability” value in series [1] (1.0 μM doxorubicin) is recorded as “significantly reduces cell viability”. Also, the viability at 0.2 µM in series [1] (Homo sapiens, MDA-MB-231, 0.2 μM doxorubicin, 72 h, 15-day old construct, read-out: cell viability (in comparison to an untreated control sample)) is ~84%. In addition, the viability at 1 µM in series [1] (Homo sapiens, MDA-MB-231, 1.0 μM doxorubicin, 72 h, 15-day old construct, read-out: cell viability (in comparison to an untreated control sample)) is ~35%. For the same molecule, the “LDH release (cytotoxicity)” value in series [2] is “increasing trend”. Besides, the “cell viability (in comparison to an untreated control sample)” value in series [3] (0.2 μM doxorubicin) is given as ~40%; in series [3] (1.0 μM doxorubicin), <14%. This molecule also displayed a 50% inhibitory concentration (IC50) in series [3] (2D culture, 72 hours) of 0.08 ± 0.02 µM.

On to `N.N.[Cl][Pt][Cl]` [Cisplatin], for which the half-inhibitory concentration (IC50) is 12.9 ± 2.5 µM in series [4] (2D U-87 MG, 72 h, read-out: Cisplatin IC50 (Mean ± SEM)); 20.1 ± 3.5 µM in series [5] (2D GBM CSC, 72 h, read-out: Cisplatin IC50 (Mean ± SEM)); 111 µM in series [6] (3D spheroids (tumourspheres)); > 200 µM in series [7] (3D Bioprinted tumour, 72 h, read-out: Cisplatin IC50); > 200 µM in series [7] (printed construct, read-out: IC50 value). In addition, the sensitivity to cisplatin entry in series [4] (2D culture, 72 hours) is given as “sensitive”; in series [5] (2D culture, 72 hours, higher doses required than for U-87 MG) it was “sensitive”. Moreover, the effectiveness of cisplatin entry in series [6] (3D GBM tumourspheres) is reported as “effective”.
